Patent US20230053540A1, “TREATMENT OF LIVER INJURY” (Massachusetts Institute of Technology, priority 2019, published 2023)

Test system: hepatocytes
Assay: Seq-Well scRNA-Seq of hepatocytes after APAP overdose (signature scores, DEG vs untreated)
Assay type: in vivo, mouse
[1] = A24 (24 h post-APAP) vs other clusters, Wilcox

With `CC(=O)Nc1ccc(O)cc1` [APAP, acetaminophen] the “Vcam1 avg_logFC” value (A6 vs UT) was 0.4574, the “Vcam1 pct.1” value (A6 vs UT) was 0.134 and the “Vkorc1 avg_logFC” value (A6 vs UT) was −0.4042. For the same compound, the “Vkorc1 pct.1” value (A6 vs UT) was 0.296, the “Vsig4 avg_logFC” value (A6 vs UT) was 0.4833 and the “Vsig4 pct.1” value (A6 vs UT) was 0.117. For the same compound, the “Wbp1l avg_logFC” value (A6 vs UT) was 0.5535, the “Wdr26 avg_logFC” value (A6 vs UT) was 0.4325 and the “Wdr26 pct.1” value (A6 vs UT) was 0.549. For the same compound, the “Wfdc17 avg_logFC” value (A6 vs UT) was 0.4867, the “Wfdc17 pct.1” value (A6 vs UT) was 0.177 and the “Xbp1 avg_logFC” value (A6 vs UT) was 0.6032. The “Xrn2 A6logFC” value (A6 vs UT) was 0.2985, the “Xrn2 avg_logFC” value (A6 vs UT) was 0.2985 and the “Xrn2 pct.1” value (A6 vs UT) was 0.387. For the same compound, the “Yap1 A6logFC” value (A6 vs UT) was 0.3281, the “Ythdc1 A6logFC” value (A6 vs UT) was 0.2641 and the “Ythdc1 avg_logFC” value (A6 vs UT) was 0.2641. The “Ythdc1 pct.1” value (A6 vs UT) was 0.301, the “Ywhag avg_logFC” value (A6 vs UT) was 0.5824 and the “Zbtb20 avg_logFC” value (A6 vs UT) was 0.4715. For the same compound, the “Zbtb20 pct.1” value (A6 vs UT) was 0.566, the “Zfand5 A6logFC” value (A6 vs UT) was 0.2882 and the “Zfand5 avg_logFC” value (A6 vs UT) was 0.2882. For the same compound, the “Zfand5 pct.1” value (A6 vs UT) was 0.401, the “Zfp106 A6logFC” value (A6 vs UT) was 0.3369 and the “Zfp106 avg_logFC” value (A6 vs UT) was 0.3369. The “Zfp106 pct.1” value (A6 vs UT) was 0.391, the “Zfp259 A6logFC” value (A6 vs UT) was 0.2556 and the “Zfp259 avg_logFC” value (A6 vs UT) was 0.2556. The “Zfp259 pct.1” value (A6 vs UT) was 0.32, the “mmu-mir-6240 avg_logFC” value (A6 vs UT) was 1.101 and the “mt-Co2 avg_logFC” value (A6 vs UT) was −1.105. For the same compound, the “mt-Co3 avg_logFC” value (A6 vs UT) was −0.7059, the “mt-Co3 pct.1” value (A6 vs UT) was 0.346 and the “mt-Nd1 avg_logFC” value (A6 vs UT) was −0.3883. The “mt-Nd4 avg_logFC” value (A6 vs UT) was −0.6388, the “n-R5-8s1 avg_logFC” value (A6 vs UT) was 0.7661 and the “avg_logFC AA474408” value [1] was 0.4148. For the same compound, the “avg_logFC Abca1” value [1] was 0.3831, the “avg_logFC Acly” value [1] was 0.4101 and the “avg_logFC Acox1” value [1] was 0.2743. The “avg_logFC Acsl4” value [1] was 0.299, the “avg_logFC Adh4” value [1] was 0.392 and the “avg_logFC Ak3” value [1] was 0.2505. The “avg_logFC Aox3” value [1] was 0.3489, the “avg_logFC Arcn1” value [1] was 0.3044 and the “avg_logFC Atp8b1” value [1] was 0.361. For the same compound, the “avg_logFC Atp11c” value [1] was 0.2568, the “avg_logFC Atxn1” value [1] was 0.325 and the “avg_logFC Calm1” value [1] was 0.3702. For the same compound, the “avg_logFC Calu” value [1] was 0.3005, the “avg_logFC Canx” value [1] was 0.2771 and the “avg_logFC Cltc” value [1] was 0.3397. The “avg_logFC Cmah” value [1] was 0.4243, the “avg_logFC Copa” value [1] was 0.3334 and the “avg_logFC Cps1” value [1] was 0.2775. For the same compound, the “avg_logFC Ctnnb1” value [1] was 0.329, the “avg_logFC Cxcl1” value [1] was 0.453 and the “avg_logFC Cyb5r3” value [1] was 0.3097. The “avg_logFC Ddost” value [1] was 0.2909, the “avg_logFC Dhcr24” value [1] was 0.2824 and the “avg_logFC Dnajb11” value [1] was 0.3288. The “avg_logFC Dnajc12” value [1] was 0.3241, the “avg_logFC Echdc1” value [1] was 0.2818 and the “avg_logFC Edem1” value [1] was 0.2675. For the same compound, the “avg_logFC Efna1” value [1] was 0.3161, the “avg_logFC Eif4g1” value [1] was 0.2763 and the “avg_logFC Eif4g2” value [1] was 0.3515. The “avg_logFC Eprs” value [1] was 0.2513, the “avg_logFC Etnk1” value [1] was 0.3194 and the “avg_logFC Fam120a” value [1] was 0.2583. For the same compound, the “avg_logFC Fasn” value [1] was 0.2699, the “avg_logFC Fndc3b” value [1] was 0.3202 and the “avg_logFC Fos” value [1] was 0.3632. The “avg_logFC Gjb2” value [1] was 0.2998, the “avg_logFC Gm5424” value [1] was 0.262 and the “avg_logFC Gm24245” value [1] was 0.414. The “avg_logFC Grlf1” value [1] was 0.2556, the “avg_logFC Hnf4a” value [1] was 0.255 and the “avg_logFC Hs3st3b1” value [1] was 0.3219. The “avg_logFC Hsd3b5” value [1] was 0.3009, the “avg_logFC Hsd17b2” value [1] was 0.3231 and the “avg_logFC Hspa13” value [1] was 0.342. For the same compound, the “avg_logFC Ibtk” value [1] was 0.2959, the “avg_logFC Il6st” value [1] was 0.3011 and the “avg_logFC Il13ra1” value [1] was 0.2889. For the same compound, the “avg_logFC Insig1” value [1] was 0.4125, the “avg_logFC Kmo” value [1] was 0.2687 and the “avg_logFC Lasp1” value [1] was 0.2608. For the same compound, the “avg_logFC Lgr4” value [1] was 0.2572, the “avg_logFC Lman1” value [1] was 0.2518 and the “avg_logFC Lpgat1” value [1] was 0.2525. For the same compound, the “avg_logFC Lrg1” value [1] was 0.3096, the “avg_logFC Lrp1” value [1] was 0.4837 and the “avg_logFC Lrrc59” value [1] was 0.2688. The “avg_logFC Met” value [1] was 0.2512, the “avg_logFC Mlec” value [1] was 0.3405 and the “avg_logFC Mtss1” value [1] was 0.2522. The “avg_logFC Mtus1” value [1] was 0.3125, the “avg_logFC Mug2” value [1] was 0.3166 and the “avg_logFC Nab1” value [1] was 0.2601. For the same compound, the “avg_logFC Nars” value [1] was 0.3127, the “avg_logFC Nedd4” value [1] was 0.3306 and the “avg_logFC Nr1d2” value [1] was 0.3855. For the same compound, the “avg_logFC Nr5a2” value [1] was 0.2599, the “avg_logFC Nrp1” value [1] was 0.33 and the “avg_logFC Ostc” value [1] was 0.3082. For the same compound, the “avg_logFC Pnpla7” value [1] was 0.3966, the “avg_logFC Prg4” value [1] was 0.4007 and the “avg_logFC Prkd3” value [1] was 0.3041. For the same compound, the “avg_logFC Proz” value [1] was 0.28, the “avg_logFC Pten” value [1] was 0.2663 and the “avg_logFC Ptprf” value [1] was 0.2888. For the same compound, the “avg_logFC Qsox1” value [1] was 0.2818, the “avg_logFC Rab1” value [1] was 0.3145 and the “avg_logFC Rdx” value [1] was 0.276. The “avg_logFC Rpn1” value [1] was 0.3992, the “avg_logFC Rrbp1” value [1] was 0.2968 and the “avg_logFC Sdf2l1” value [1] was 0.3078. The “avg_logFC Sec31a” value [1] was 0.2596, the “avg_logFC Sec61b” value [1] was 0.3008 and the “avg_logFC Sel1l” value [1] was 0.2833. For the same compound, the “avg_logFC Sh3bgrl” value [1] was 0.2668, the “avg_logFC Slc3a1” value [1] was 0.3074 and the “avg_logFC Slc38a10” value [1] was 0.2557. The “avg_logFC Spcs3” value [1] was 0.3907, the “avg_logFC Srebf1” value [1] was 0.3149 and the “avg_logFC Srp72” value [1] was 0.28. For the same compound, the “avg_logFC Srpr” value [1] was 0.2914, the “avg_logFC Ssr1” value [1] was 0.3129 and the “avg_logFC Stard4” value [1] was 0.2922. For the same compound, the “avg_logFC Stt3b” value [1] was 0.2648, the “avg_logFC Tmed7” value [1] was 0.3715 and the “avg_logFC Tmem30a” value [1] was 0.3056. For the same compound, the “avg_logFC Trip12” value [1] was 0.2832, the “avg_logFC Txndc5” value [1] was 0.2758 and the “avg_logFC Uggt1” value [1] was 0.2805. For the same compound, the “avg_logFC Uso1” value [1] was 0.3202, the “avg_logFC Usp4” value [1] was 0.2959 and the “avg_logFC Usp9x” value [1] was 0.3387. For the same compound, the “avg_logFC Zbtb20” value [1] was 0.3135, the “Atp11c A24logFC” value (A24 vs UT) was 0.2605 and the “Brd2 A24logFC” value (A24 vs UT) was 0.2664. The “Caprin1 A24logFC” value (A24 vs UT) was 0.2628, the “Copz1 A24logFC” value (A24 vs UT) was 0.2577 and the “Ctsc A24logFC” value (A24 vs UT) was 0.3004. For the same compound, the “Ddost A24logFC” value (A24 vs UT) was 0.2504, the “Deptor A24logFC” value (A24 vs UT) was 0.2606 and the “Eif4b A24logFC” value (A24 vs UT) was 0.256. For the same compound, the “Fasn A24logFC” value (A24 vs UT) was 0.2914, the “Gm20594 A24logFC” value (A24 vs UT) was −0.36 and the “Lasp1 A24logFC” value (A24 vs UT) was 0.253. For the same compound, the “Proz A24logFC” value (A24 vs UT) was 0.2632, the “Rnf13 A24logFC” value (A24 vs UT) was 0.2553 and the “Ubb A24logFC” value (A24 vs UT) was −0.2593. For the same compound, the “avg_logFC 1110008F13Rik” value (A24 vs untreated (UT)) was −0.4553, the “avg_logFC AA474408” value (A24 vs untreated (UT)) was 0.4364 and the “avg_logFC Aadac” value (A24 vs untreated (UT)) was −0.4038. For the same compound, the “avg_logFC Abca1” value (A24 vs untreated (UT)) was 0.4394, the “avg_logFC Acaa1b” value (A24 vs untreated (UT)) was −0.8508 and the “avg_logFC Acot1” value (A24 vs untreated (UT)) was −0.2862. The “avg_logFC Acox1” value (A24 vs untreated (UT)) was 0.2752, the “avg_logFC Acsl1” value (A24 vs untreated (UT)) was −0.3703 and the “avg_logFC Acsl4” value (A24 vs untreated (UT)) was 0.3147. The “avg_logFC Actb” value (A24 vs untreated (UT)) was 0.3845, the “avg_logFC Adh1” value (A24 vs untreated (UT)) was −0.342 and the “avg_logFC Adh4” value (A24 vs untreated (UT)) was 0.3769. The “avg_logFC Ahcy” value (A24 vs untreated (UT)) was −0.563, the “avg_logFC Ak3” value (A24 vs untreated (UT)) was 0.289 and the “avg_logFC Akr1c6” value (A24 vs untreated (UT)) was −0.3176. The “avg_logFC Alas1” value (A24 vs untreated (UT)) was −0.4898, the “avg_logFC Aldh3a2” value (A24 vs untreated (UT)) was −0.3008 and the “avg_logFC Ankrd55” value (A24 vs untreated (UT)) was −1.874. For the same compound, the “avg_logFC Aox3” value (A24 vs untreated (UT)) was 0.2878, the “avg_logFC Apcs” value (A24 vs untreated (UT)) was 0.6067 and the “avg_logFC Apoa2” value (A24 vs untreated (UT)) was −0.5455. For the same compound, the “avg_logFC Apoa5” value (A24 vs untreated (UT)) was −0.299, the “avg_logFC Apob” value (A24 vs untreated (UT)) was 0.4272 and the “avg_logFC Apoc1” value (A24 vs untreated (UT)) was −0.3803. The “avg_logFC Apoc3” value (A24 vs untreated (UT)) was −0.4404, the “avg_logFC Apoc4” value (A24 vs untreated (UT)) was −0.4285 and the “avg_logFC Apoe” value (A24 vs untreated (UT)) was −0.4213. The “avg_logFC Arcn1” value (A24 vs untreated (UT)) was 0.3278, the “avg_logFC Arrdc3” value (A24 vs untreated (UT)) was 0.5269 and the “avg_logFC Atp8b1” value (A24 vs untreated (UT)) was 0.3628. The “avg_logFC Atp5h” value (A24 vs untreated (UT)) was −0.5795, the “avg_logFC Atxn1” value (A24 vs untreated (UT)) was 0.3049 and the “avg_logFC B2m” value (A24 vs untreated (UT)) was −0.418. For the same compound, the “avg_logFC BC025446” value (A24 vs untreated (UT)) was 0.2942, the “avg_logFC Bhmt” value (A24 vs untreated (UT)) was −0.5202 and the “avg_logFC C3” value (A24 vs untreated (UT)) was 0.4495. For the same compound, the “avg_logFC C8a” value (A24 vs untreated (UT)) was 0.3337, the “avg_logFC C8b” value (A24 vs untreated (UT)) was 0.3187 and the “avg_logFC C8g” value (A24 vs untreated (UT)) was −0.482. For the same compound, the “avg_logFC Calm1” value (A24 vs untreated (UT)) was 0.4131, the “avg_logFC Calr” value (A24 vs untreated (UT)) was 0.5551 and the “avg_logFC Calu” value (A24 vs untreated (UT)) was 0.3041. The “avg_logFC Canx” value (A24 vs untreated (UT)) was 0.3434, the “avg_logFC Cat” value (A24 vs untreated (UT)) was 0.2626 and the “avg_logFC Cebpb” value (A24 vs untreated (UT)) was −0.4716. The “avg_logFC Ces1c” value (A24 vs untreated (UT)) was −0.2783.
